Results on two compounds are retold here after patent US7700347B2, “Methods and apparatuses for conducting assays in animals” (The Forsyth Institute, priority 2005, dated 2010).

This experiment relates to planaria. Description: planaria movement (worm mobility) after drug treatment, automated tracking. It counts as in vivo, Dugesia tigrinia. Particulars: 24 hours of drug treatment, movement observed for three hours, compared to control carrier (water+DMSO), statistically significant. How it is done:
The following methods were used for Examples 5-8. The species of planaria used in these studies was Dugesia tigrinia, obtained from Ward's Natural Science. The planaria colonies were stored in natural spring water at 22.5° C., and kept on a 9 hour light/15 hour dark cycle. The colonies were fed once per week with organic beef liver. Their water was changed several hours after feeding and 3 days following each feeding. Worms were not fed (e.g., they were starved) the week they were used in an experiment because starved worms were less likely to fission during the experiment.
For the duration of an experiment, individual worms were placed in a reaction well and a plurality of reaction wells were arrayed, as shown in FIG. 10. The worms were not fed during the experiment. Each reaction well included electrodes made of a 90%/10% platinum/iridium alloy for delivering current. […]
FIG. 16 summarizes results depicting the effects of two agents on planaria behavior. Specifically, we assessed the effects of two psychiatric drugs that modulate serotonergic signaling, p-chlorophenylalanine (PCPA) and reserpine, on worm mobility.
Briefly, planaria were cultured in the presence of control carrier (water+DMSO), 625 micrograms/mL of PCPA, or 21 micrograms/mL of reserpine. […] The speed, position, and distance traveled of individual worms were monitored following drug treatment and compared to controls. […]

Regarding `N[C@@H](Cc1ccc(Cl)cc1)C(=O)O` (racemic) [PCPA, p-chlorophenylalanine], the “effect on planaria movement (worm movement, average speed)” value (625 micrograms/mL in culture) is “increased planaria movement”.

For the compound `COC(=O)[C@H]1[C@H]2C[C@@H]3c4[nH]c5cc(OC)ccc5c4CCN3C[C@H]2C[C@@H](OC(=O)c2cc(OC)c(OC)c(OC)c2)[C@@H]1OC` [reserpine], the “effect on planaria movement (worm movement, average speed)” value (21 micrograms/mL in culture) is on record as “decreased planaria movement”.
